The test system of data set [1] is multiple myeloma cell line U266B1. Put plainly: U266 Cell Viability Assay. Format: cell-based, human. The settings on record: Homo sapiens, U-266, 48 h, U266B1 cells, Celltiter-Glo. An outline of the steps:
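CellTiter-Glo luminescence was read after a 48 h compound exposure (37 °C, 5% CO2) of human U266B1 myeloma cells grown in 10% FBS-supplemented RPMI 1640. Data for structures shown without defined stereochemistry refer to stereoisomer mixtures.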
For orientation: Cellular ATP, detected with luciferase, serves as a proxy for viable cell number.

Data set [2] deals with IL-2-FL/Gaussia Luciferase. Put plainly: Dox Induced IL2-FL-Gluc Assay. Format: cell-based. The settings on record: for IC50: 24 hr Dox induction, 293FRT/TO cells, read-out: 24 hr Dox Inducible IL2FLGluc 293FRT/TO: Mean IC50; for 24 hr Dox Inducible IL2FLGluc 293FRT/TO: IL2/PD1: ratio of IL2FLGluc IC50 to PD1ssGluc IC50. Summed up:
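Compounds in DMSO/medium with doxycycline were applied to a 293 T-REx stable line expressing an IL-2 (aa 1-153)–Gaussia luciferase fusion under tetracycline-regulated control, cells seeded one day earlier; incubation at 37 °C, 5% CO2. Structures drawn without stereochemistry were tested as stereoisomer mixtures.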

Data set [3] concerns multiple myeloma cell line NCI-H929. Put plainly: H929 Cell Viability Assay. The class given is cell-based, human. The settings on record: Homo sapiens, NCI-H929, 48 h, NCI-H929 cells, Celltiter-Glo. An outline of the steps: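 Luminescent CellTiter-Glo read-out of viability after a 48 h exposure (37° C, 5% CO2) of NCI-H929 myeloma cells to compound dilutions in RPMI 1640 plus 10% FBS. Data for structures drawn without stereochemistry refer to stereoisomer mixtures.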

The nature of data set [4]: Liver Microsome Stability Assay (rat). The settings on record: rat liver microsomes, with NADPH, 1.0 uM compound.
Method: (§1) Stability of a compound was assessed in the presence of liver microsomes from various sources—mouse, rat, monkey and human liver microsomes. 1.0 uM compound, 0.4% DMSO in 0.1 M Potassium Phosphate with 1.0 mg/mL liver microsomes, were incubated at 37° C. with or without 1 mM NADPH. The samples were quenched at 0, and 30 minutes.
The test system of data set [5] is PD1-ss+10aa/Gaussia Luciferase. The experiment in a line: Dox-Induced PD1-ss-Gluc Assay. Format: cell-based. The settings on record: 24 hr Dox induction, 293FRT/TO cells, read-out: 24 hr Dox Inducible PD1ssGluc 293FRT/TO: Mean IC50. An outline of the steps: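 Flp-In 293 T-REx cells stably carrying a doxycycline-inducible Gaussia luciferase fused to the PD1 signal sequence plus 10 aa were plated the day before. Compound dilutions in DMSO/media containing doxycycline were then added and incubated at 37 °C, 5% CO2. Data for undefined stereochemistry refer to stereoisomer mixtures.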

The subject of data set [6] is HER3-ss+4aa/Gaussia Luciferase. Put plainly: Dox-Induced Her3-ss-Gluc Assay. The class given is cell-based. The conditions noted are these: 24 hr Dox induction, 293FRT/TO cells, read-out: 24 hr Dox Inducible Her3(ss + 4)Gluc 293FRT/TO: Mean IC50. Summed up:
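Compounds were diluted in DMSO/media containing doxycycline. They were added to Flp-In 293 T-REx cells plated the previous day, then incubated at 37 °C under 5% CO2. These cells stably express, under T-REx control, Gaussia luciferase fused to the HER3 signal sequence plus 4 amino acids.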

Data set [7] relates to TNFα-FL/Gaussia Luciferase. Put plainly: Dox Induced TNFα-FL-Gluc Assay. The conditions noted are these: for IC50: 24 hr Dox induction, 293FRT/TO cells, read-out: 24 hr Dox Inducible TNFaFLGluc 293FRT/TO: Mean IC50; for 24 hr Dox Inducible TNFaFLGluc 293FRT/TO: TNF/PD1: ratio of TNFaFLGluc IC50 to PD1ssGluc IC50. Format: cell-based. Summed up: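 Compound was added with doxycycline to cells plated a day earlier, incubating at 37° C under 5% CO2. The reporter line is 293 T-REx expressing a TNFα (1-233)–Gaussia luciferase fusion under tetracycline-regulated control.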

Data set [8] is described as follows: Liver Microsome Stability Assay (mouse). The conditions noted are these: mouse liver microsomes, with NADPH, 1.0 uM compound. (Liver microsomes are vesicles of endoplasmic reticulum, rich in cytochrome P450 enzymes.)
Method: as §1
Data set [9] can be described thus: Liver Microsome Stability Assay (human). The conditions noted are these: human liver microsomes, with NADPH, 1.0 uM compound.
Method: as §1
Data set [10] in a line: Liver Microsome Stability Assay (monkey). The conditions noted are these: monkey liver microsomes, with NADPH, 1.0 uM compound.
Method: as §1
The mark [11] stands for this setting: '<=>' given where both are I.A.

SMILES strings stand for the structures. Read-outs that look alike come from different tables or passages of the source.

What is called EC50 is the midpoint of the concentration-response curve.

Consider `O=C(Nc1nc([C@H]2CCCN2c2ccc(OC(F)(F)F)cc2)cs1)c1cccn1CC1CCOCC1` [Compound C54, (R)-1-((tetrahydro-2H-pyran-4-yl)methyl)-N-(4-(1-(4-(trifluoromethoxy)phenyl)pyrrolidin-2-yl)thiazol-2-yl)-1H-pyrrole-2-carboxamide], for which the 50% effective concentration (EC50) was greater than 25000 nM in data set [1] and 6520 nM in data set [3]. Also, the IC50 in data set [2] (mean) came to 479 nM; in data set [5] (mean) it was 132 nM; in data set [6] (mean) it was 272 nM; in data set [7] (mean), 1790 nM. Also, the “24 hr Dox Inducible IL2FLGluc 293FRT/TO: IL2/PD1” value in data set [2] (setting [11]) came to 3.6. In data set [4], the “Liver Microsome Stability (Multiple Species): Rat - % Remaining after 30 min w/NADPH” value is 67.6%. Besides, in data set [7] (setting [11]), the “24 hr Dox Inducible TNFaFLGluc 293FRT/TO: TNF/PD1” value came to 13.5. Moreover, the “Liver Microsome Stability (Multiple Species): Mouse - % Remaining after 30 min w/NADPH” value in [8] was 99.1%. Moreover, in data set [9], the “Liver Microsome Stability (Multiple Species): Human - % Remaining after 30 min w/NADPH” value was 77.9%. Also, the “Liver Microsome Stability (Multiple Species): Monkey - % Remaining after 30 min w/NADPH” value in data set [10] is 46.8%.

For the compound `COC(=O)Nc1ccc(N2CCC[C@@H]2c2csc(NC(=O)c3cc(C)cn3Cc3ccnc(F)c3)n2)cc1` [Compound A172, methyl (R)-(4-(2-(2-(1-((2-fluoropyridin-4-yl)methyl)-4-methyl-1H-pyrrole-2-carboxamido)thiazol-4-yl)pyrrolidin-1-yl)phenyl)carbamate], the EC50 in data set [1] is greater than 25000 nM; in data set [3], 190 nM. The IC50 was 5.99 nM in data set [2], 2.66 nM in data set [5], 5.18 nM in data set [6] and 50.4 nM in data set [7]. The “24 hr Dox Inducible IL2FLGluc 293FRT/TO: IL2/PD1” value in [2] came to 2.3. In data set [4], the “Liver Microsome Stability (Multiple Species): Rat - % Remaining after 30 min w/NADPH” value is recorded as 19.7%. Further, the “24 hr Dox Inducible TNFaFLGluc 293FRT/TO: TNF/PD1” value in data set [7] is on record as 19. In data set [8], the “Liver Microsome Stability (Multiple Species): Mouse - % Remaining after 30 min w/NADPH” value came out at 44.9%. For the same compound, the “Liver Microsome Stability (Multiple Species): Human - % Remaining after 30 min w/NADPH” value in data set [9] is recorded as 65.3%. Further, the “Liver Microsome Stability (Multiple Species): Monkey - % Remaining after 30 min w/NADPH” value in [10] is on record as 43.3%.

In the case of `CCc1cc(/C=C/c2csc(NC(=O)c3cccn3Cc3ccnc(F)c3)n2)no1` [Compound B89, (E)-N-(4-(2-(5-ethylisoxazol-3-yl)vinyl)thiazol-2-yl)-1-((2-fluoropyridin-4-yl)methyl)-1H-pyrrole-2-carboxamide], the EC50 in data set [1] and in [3] was greater than 25000 nM throughout. The IC50 was 1650 nM in [2], 271 nM in data set [5], 1100 nM in [6] and greater than 25000 nM in data set [7]. In addition, the “24 hr Dox Inducible IL2FLGluc 293FRT/TO: IL2/PD1” value in data set [2] was found to be 6.1. Moreover, the “Liver Microsome Stability (Multiple Species): Rat - % Remaining after 30 min w/NADPH” value in data set [4] amounted to 1.11%. Further, the “24 hr Dox Inducible TNFaFLGluc 293FRT/TO: TNF/PD1” value in data set [7] is recorded as greater than 92.2. In addition, the “Liver Microsome Stability (Multiple Species): Mouse - % Remaining after 30 min w/NADPH” value in [8] is on record as 2.24%. The “Liver Microsome Stability (Multiple Species): Human - % Remaining after 30 min w/NADPH” value in [9] worked out at 0.4%. Moreover, the “Liver Microsome Stability (Multiple Species): Monkey - % Remaining after 30 min w/NADPH” value in data set [10] is listed as 0.17%.

For the compound `O=C(Nc1nc([C@H]2CCCN2c2ccccc2)cs1)c1cccn1-c1csc2cnccc12` [Compound C115, (R)-N-(4-(1-phenylpyrrolidin-2-yl)thiazol-2-yl)-1-(thieno[2,3-c]pyridin-3-yl)-1H-pyrrole-2-carboxamide], the EC50 is greater than 25000 nM in data set [1] and greater than 22800 nM in [3]. Further, the IC50 was 613 nM in data set [2] (mean), 287 nM in data set [5] (mean), 552 nM in data set [6] (mean) and 3530 nM in data set [7] (mean). Also, the “24 hr Dox Inducible IL2FLGluc 293FRT/TO: IL2/PD1” value in [2] (setting [11]) was 2.1. The “Liver Microsome Stability (Multiple Species): Rat - % Remaining after 30 min w/NADPH” value in [4] was 2.2%. Besides, in [7] (setting [11]), the “24 hr Dox Inducible TNFaFLGluc 293FRT/TO: TNF/PD1” value is given as 12.3. Moreover, the “Liver Microsome Stability (Multiple Species): Mouse - % Remaining after 30 min w/NADPH” value in [8] is listed as 1.07%. Further, the “Liver Microsome Stability (Multiple Species): Human - % Remaining after 30 min w/NADPH” value in data set [9] was determined as 1.3%. For the same compound, the “Liver Microsome Stability (Multiple Species): Monkey - % Remaining after 30 min w/NADPH” value in data set [10] worked out at 0.66%.

For `C/C(=C\c1csc(NC(=O)c2cccn2Cc2ccncc2)n1)c1ccc(OC(F)(F)F)cn1` [Compound E5, (E)-1-(pyridin-4-ylmethyl)-N-(4-(2-(5-(trifluoromethoxy)pyridin-2-yl)prop-1-en-1-yl)thiazol-2-yl)-1H-pyrrole-2-carboxamide], the EC50 in data set [1] came out at 19600 nM; in data set [3] it was 8090 nM. Further, the IC50 in data set [2] (mean) is 1230 nM; in [5] (mean), 125 nM; in [6] (mean) it was 1060 nM; in data set [7] (mean), greater than 25000 nM. Besides, the “24 hr Dox Inducible IL2FLGluc 293FRT/TO: IL2/PD1” value in [2] (setting [11]) is given as 9.8. For the same compound, the “Liver Microsome Stability (Multiple Species): Rat - % Remaining after 30 min w/NADPH” value in data set [4] is listed as 46.1%. Also, the “24 hr Dox Inducible TNFaFLGluc 293FRT/TO: TNF/PD1” value in data set [7] (setting [11]) was greater than 199. Moreover, the “Liver Microsome Stability (Multiple Species): Mouse - % Remaining after 30 min w/NADPH” value in data set [8] is reported as 16.7%. In data set [9], the “Liver Microsome Stability (Multiple Species): Human - % Remaining after 30 min w/NADPH” value was found to be 5.77%. For the same compound, the “Liver Microsome Stability (Multiple Species): Monkey - % Remaining after 30 min w/NADPH” value in [10] turned out to be 2.47%.

For the compound `CC(=O)NCc1ccc(N2CCC[C@@H]2c2csc(NC(=O)c3cccn3Cc3ccnc(F)c3)n2)cc1` [Compound A64, (R)-N-(4-(1-(4-(acetamidomethyl)phenyl)pyrrolidin-2-yl)thiazol-2-yl)-1-((2-fluoropyridin-4-yl)methyl)-1H-pyrrole-2-carboxamide], the results for the EC50 in [1] and in [3] were greater than 25000 nM and 203 nM, respectively. In addition, the IC50 in [2] stood at 27 nM; in data set [5] it was 10.6 nM; in [6], 19.4 nM; in [7] it was 164 nM. For the same compound, the “24 hr Dox Inducible IL2FLGluc 293FRT/TO: IL2/PD1” value in data set [2] stood at 2.5. Further, in data set [4], the “Liver Microsome Stability (Multiple Species): Rat - % Remaining after 30 min w/NADPH” value was 6.39%. In addition, in data set [7], the “24 hr Dox Inducible TNFaFLGluc 293FRT/TO: TNF/PD1” value was found to be 15.4. Also, the “Liver Microsome Stability (Multiple Species): Mouse - % Remaining after 30 min w/NADPH” value in [8] came out at 13.7%. Moreover, the “Liver Microsome Stability (Multiple Species): Human - % Remaining after 30 min w/NADPH” value in [9] stood at 1.39%. In addition, the “Liver Microsome Stability (Multiple Species): Monkey - % Remaining after 30 min w/NADPH” value in [10] worked out at 0.78%.

For `CN1CCC(Oc2ccc(N3CCC[C@@H]3c3csc(NC(=O)c4cccn4Cc4ccncc4)n3)cc2)CC1` [Compound A8, (R)-N-(4-(1-(4-((1-methylpiperidin-4-yl)oxy)phenyl)pyrrolidin-2-yl)thiazol-2-yl)-1-(pyridin-4-ylmethyl)-1H-pyrrole-2-carboxamide], the EC50 came to 2940 nM in [1] and 2000 nM in data set [3]. Further, the IC50 worked out at 806 nM in [2], 293 nM in [5], 588 nM in data set [6] and 13400 nM in data set [7]. In addition, the “24 hr Dox Inducible IL2FLGluc 293FRT/TO: IL2/PD1” value in data set [2] stood at 2.7. In [4], the “Liver Microsome Stability (Multiple Species): Rat - % Remaining after 30 min w/NADPH” value was 11%. Moreover, the “24 hr Dox Inducible TNFaFLGluc 293FRT/TO: TNF/PD1” value in data set [7] worked out at 45.5. Further, in data set [8], the “Liver Microsome Stability (Multiple Species): Mouse - % Remaining after 30 min w/NADPH” value was 3.14%. In [9], the “Liver Microsome Stability (Multiple Species): Human - % Remaining after 30 min w/NADPH” value is 3.14%. Further, the “Liver Microsome Stability (Multiple Species): Monkey - % Remaining after 30 min w/NADPH” value in data set [10] came out at 11.3%.

The values above are taken from patent US20230286973A1, “PROTEIN SECRETION INHIBITORS” (KEZAR LIFE SCIENCES, priority 2020, published 2023).
